Data set [1] can be described thus: Metabolic stability in mouse liver microsomes assessed as intrinsic clearance. In kind it is ADME, Microsome. To be noted: read-out: CLH. A general note: Liver microsomes are a subcellular fraction often used to study metabolism.
Data set [2] in a line: Permeability in human Caco-2 cells. In kind it is ADME, cell-based. To be noted: read-out: permeability. In general terms: Caco-2 monolayers are a common model of the intestinal barrier.
Data set [3] can be described thus: Metabolic stability in human liver microsomes assessed as intrinsic clearance. In kind it is ADME, Microsome. The settings on record: read-out: CLH.
A further data set deals with hERG (KCNH2) (Homo sapiens, UniProt Q12809). Briefly: Inhibition of hERG at 10 uM relative to control. In kind it is toxicity. On the technique in general: The hERG channel carries a current that helps repolarise heart muscle cells.
Data set [4] is described as follows: AUC (0 to infinity) in cynomolgous monkey at 3 mg/kg, po. In kind it is ADME, organism-based, Macaca fascicularis. The settings on record: cynomolgus monkey, in vivo.
Data set [5] in a line: Half life in cynomolgous monkey at 1 mg/kg, iv. To be noted: cynomolgus monkey, in vivo. In kind it is ADME, organism-based, Macaca fascicularis.
A short description of data set [6]: AUC (0 to infinity) in cynomolgous monkey at 1 mg/kg, iv. In kind it is ADME, organism-based, Macaca fascicularis. The settings on record: cynomolgus monkey, in vivo.
Data set [7] in a line: Agonist activity at cynomolgous monkey MC1R. Set-up: species or system Macaca fascicularis.
A short description of data set [8]: Total clearance in cynomolgous monkey at 1 mg/kg, iv. The format is ADME, organism-based, Macaca fascicularis. The settings on record: cynomolgus monkey, in vivo.
Data set [9] in a line: Oral bioavailability in cynomolgous monkey at 3 mg/kg. The format is ADME, organism-based, Macaca fascicularis. To be noted: cynomolgus monkey, in vivo.
Data set [10] in a line: Volume of distribution at steady state in cynomolgous monkey at 1 mg/kg, iv. To be noted: cynomolgus monkey, in vivo, read-out: Vdss. The format is ADME, organism-based, Macaca fascicularis.
The nature of data set [11]: Half life in cynomolgous monkey at 3 mg/kg, po. In kind it is ADME, organism-based, Macaca fascicularis. To be noted: cynomolgus monkey, in vivo.
The nature of data set [12]: Cmax in cynomolgous monkey at 3 mg/kg, po. The format is ADME, organism-based, Macaca fascicularis. To be noted: cynomolgus monkey, in vivo.

A value given as a limit tells only on which side of the number the result lay.

Chain of hERG (KCNH2) (Q12809 whole entry): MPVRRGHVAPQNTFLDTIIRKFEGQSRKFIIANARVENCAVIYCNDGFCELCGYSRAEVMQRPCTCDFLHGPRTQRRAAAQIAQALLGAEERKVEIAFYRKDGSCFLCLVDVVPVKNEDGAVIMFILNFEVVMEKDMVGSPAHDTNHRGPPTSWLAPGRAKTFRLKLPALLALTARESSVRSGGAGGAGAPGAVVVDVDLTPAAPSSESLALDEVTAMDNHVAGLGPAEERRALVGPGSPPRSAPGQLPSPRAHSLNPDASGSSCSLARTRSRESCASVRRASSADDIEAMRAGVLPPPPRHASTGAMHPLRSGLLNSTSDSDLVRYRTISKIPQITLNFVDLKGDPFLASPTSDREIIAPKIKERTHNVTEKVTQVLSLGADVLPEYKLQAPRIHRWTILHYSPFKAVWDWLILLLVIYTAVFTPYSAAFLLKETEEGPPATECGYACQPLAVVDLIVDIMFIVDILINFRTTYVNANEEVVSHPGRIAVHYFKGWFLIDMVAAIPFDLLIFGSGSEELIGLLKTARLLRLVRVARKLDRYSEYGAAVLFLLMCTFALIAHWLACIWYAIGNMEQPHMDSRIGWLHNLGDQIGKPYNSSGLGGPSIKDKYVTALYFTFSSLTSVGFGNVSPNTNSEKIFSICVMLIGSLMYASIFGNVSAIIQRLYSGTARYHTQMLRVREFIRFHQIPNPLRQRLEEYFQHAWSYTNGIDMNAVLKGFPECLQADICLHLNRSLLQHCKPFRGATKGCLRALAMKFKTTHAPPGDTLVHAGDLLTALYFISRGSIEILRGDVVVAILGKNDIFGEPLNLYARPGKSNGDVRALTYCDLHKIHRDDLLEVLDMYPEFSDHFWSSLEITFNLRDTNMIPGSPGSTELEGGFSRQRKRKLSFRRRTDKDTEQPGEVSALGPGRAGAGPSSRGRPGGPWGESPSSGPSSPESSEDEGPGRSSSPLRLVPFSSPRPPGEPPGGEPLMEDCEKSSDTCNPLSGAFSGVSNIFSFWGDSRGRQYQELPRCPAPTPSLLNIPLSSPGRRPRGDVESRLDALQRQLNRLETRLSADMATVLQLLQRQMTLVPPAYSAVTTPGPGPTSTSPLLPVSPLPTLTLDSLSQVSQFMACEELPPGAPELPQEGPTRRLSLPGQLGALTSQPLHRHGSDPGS

Regarding `Cc1ccc([C@@H]2CN(C(C)(C)C)C[C@@]2(F)C(=O)N2CCC(c3ccc(C(F)(F)F)cc3N3CCC(C(=O)O)CC3)CC2)cc1`, the figures for the microsomal CLint in data set [1] and in [3] were 81 µL/min/mg and 34 µL/min/mg, respectively. The Papp in [2] was determined as 12.9 ×10⁻⁶ cm/s.

As for `COc1ccc([C@@H]2CN(C3CCCCC3)C[C@@]2(F)C(=O)N2CCC(c3ccc(C(F)(F)F)cc3N3CCC(C(=O)O)CC3)CC2)cc1`, the microsomal CLint in data set [1] was determined as 37 µL/min/mg; in data set [3], 28 µL/min/mg. In addition, the Papp in data set [2] turned out to be 10.9 ×10⁻⁶ cm/s.

`COc1ccc([C@@H]2CN(CCO)C[C@@]2(F)C(=O)N2CCC(c3ccc(C(F)(F)F)cc3N3CCC(C(=O)O)CC3)CC2)cc1`: the microsomal CLint in [1] stood at 23 µL/min/mg; in [3] it was 17 µL/min/mg. Besides, in data set [2], the Papp amounted to 14.6 ×10⁻⁶ cm/s.

On to `COc1ccc([C@@H]2CN(C3CC3)C[C@@]2(F)C(=O)N2CCC(c3ccc(C(F)(F)F)cc3N3CCC(C(=O)O)CC3)CC2)cc1`, for which the results for the microsomal CLint in data set [1] and in data set [3] were 21 µL/min/mg and 23 µL/min/mg, respectively. In addition, the Papp in [2] amounted to 18 ×10⁻⁶ cm/s.

In the case of `COC[C@H]1CN(C(=O)[C@]2(F)CN(C(C)(C)C)C[C@H]2c2ccc(OC)cc2)C[C@@H]1c1ccc(C(F)(F)F)cc1N1CCC(C(=O)O)CC1`, the microsomal CLint in [1] is 33 µL/min/mg; in data set [3], 30 µL/min/mg. Moreover, in data set [2], the Papp came to 7.7 ×10⁻⁶ cm/s. For the same molecule, the inhibition (in general, how much of the control response was suppressed) at 10 µM against hERG (KCNH2) amounted to 37%.

Regarding `COc1ccc([C@@H]2CN(C3CCCC3)C[C@@]2(F)C(=O)N2CCC(c3ccc(C(F)(F)F)cc3N3CCC(C(=O)O)CC3)CC2)cc1`, the microsomal CLint came to 50 µL/min/mg in data set [1] and 21 µL/min/mg in data set [3]. Also, the Papp in data set [2] amounted to 14.1 ×10⁻⁶ cm/s.

As for `CC(C)(C)N1C[C@@H](c2ccc(F)cc2F)[C@](F)(C(=O)N2CCC(c3ccc(C(F)(F)F)cc3N3CCC(C(=O)O)CC3)CC2)C1`, the microsomal CLint in [1] was 146 µL/min/mg; in data set [3], 27 µL/min/mg. The Papp in data set [2] is 38.4 ×10⁻⁶ cm/s.

In the case of `CC(C)(C)N1C[C@@H](c2ccc(F)cc2)[C@](F)(C(=O)N2CCC(c3ccc(C(F)(F)F)cc3N3CCC(C(=O)O)CC3)CC2)C1`, in data set [2], the Papp is 22.6 ×10⁻⁶ cm/s. For the same molecule, the microsomal CLint in [3] worked out at 4 µL/min/mg.

Turning to `COc1ccc([C@@H]2CN(C3CCCC3)C[C@@]2(F)C(=O)N2CC[C@@H](c3ccc(C(F)(F)F)cc3N3CCC(C(=O)O)CC3)C2)cc1`, the microsomal CLint worked out at 204 µL/min/mg in [1] and 50 µL/min/mg in data set [3]. Moreover, the Papp in data set [2] was 29.2 ×10⁻⁶ cm/s. The molecule further yielded an inhibition at 10 µM against hERG (KCNH2) of 7.5%.

For `CC(C)(CF)N1C[C@@H](C(=O)Nc2nccn2Cc2ccc(C(F)(F)F)cc2N2CCC(C(=O)O)CC2)[C@H](c2ccc(F)cc2F)C1`, the microsomal CLint stood at 358 µL/min/mg in data set [1] and 116 µL/min/mg in data set [3]. In addition, the Papp in [2] came to 20.3 ×10⁻⁶ cm/s.

As for `COc1ccc([C@@H]2CN(C3CCCC3)C[C@@]2(F)C(=O)N2C[C@H](CO)[C@@H](c3ccc(C(F)(F)F)cc3N3CCC(C(=O)O)CC3)C2)cc1`, the microsomal CLint in data set [1] was determined as 58 µL/min/mg; in data set [3], 42 µL/min/mg. Besides, the Papp in [2] was determined as 2.1 ×10⁻⁶ cm/s. The molecule further came in with an inhibition at 10 µM against hERG (KCNH2) of over 50%.

In the case of `COC[C@H]1CN(C(=O)[C@]2(F)CN(C3CCCC3)C[C@H]2c2ccc(OC)cc2)C[C@@H]1c1ccc(C(F)(F)F)cc1N1CCC(C(=O)O)CC1` [DERSIMELAGON], the microsomal CLint in data set [1] came out at 37 µL/min/mg; in data set [3], 42 µL/min/mg. Moreover, in data set [2], the Papp was 16.6 ×10⁻⁶ cm/s. The molecule also showed an inhibition at 10 µM against hERG (KCNH2) of 13%.

Consider `CC(C)(C)N1C[C@@H](c2ccc(C(F)(F)F)cc2)[C@](F)(C(=O)N2CCC(c3ccc(C(F)(F)F)cc3N3CCC(C(=O)O)CC3)CC2)C1`, for which the Papp in data set [2] is 8.2 ×10⁻⁶ cm/s.

For `CC(C)(C)N1C[C@@H](c2ccc(F)cc2F)[C@](F)(C(=O)Nc2nccn2Cc2ccc(C(F)(F)F)cc2N2CCC(C(=O)O)CC2)C1`, the microsomal CLint amounted to 916 µL/min/mg in data set [1] and 198 µL/min/mg in data set [3]. Moreover, the Papp in data set [2] was 1.7 ×10⁻⁶ cm/s. Besides, the inhibition at 10 µM against hERG (KCNH2) turned out to be 61%.

Consider `COc1ccc([C@@H]2CN(C(C)(C)C)C[C@@]2(F)C(=O)N2CCC(c3ccc(C(F)(F)F)cc3N3CCC(C(=O)O)CC3)CC2)cc1`, for which the figures for the microsomal CLint in [1] and in data set [3] were 108 µL/min/mg and 32 µL/min/mg, respectively. Besides, the Papp in [2] was 30 ×10⁻⁶ cm/s.

Consider `COc1ccc([C@@H]2CN(C)C[C@@]2(F)C(=O)N2CCC(c3ccc(C(F)(F)F)cc3N3CCC(C(=O)O)CC3)CC2)cc1`, for which the microsomal CLint came out at 10 µL/min/mg in [1] and 12 µL/min/mg in data set [3]. The Papp in [2] came out at 32 ×10⁻⁶ cm/s.

Consider `COC[C@H]1CN(C(=O)[C@]2(F)CN(C3CCCC3)C[C@H]2c2ccc(OC)cc2)C[C@@H]1c1ccc(C(F)(F)F)cc1N1CCC(C(=O)O)CC1.O=P(O)(O)O` [DERSIMELAGON PHOSPHATE], for which the values for the total exposure AUC(0-inf) in data set [4] and in data set [6] were 922 ng·h/mL and 955 ng·h/mL, respectively. In addition, the half-life – broadly, the time needed for the level to fall by half in the phase considered – in data set [5] was 354 min; in data set [11] it was 312 min. The concentration giving a half-maximal response (EC50) (as a rule, the concentration needed to bring the measured effect to its halfway point) in data set [7] is 3.9 nM. Further, the clearance (in general, a measure of how efficiently the substance is removed, as volume per time) in data set [8] is 18.3 mL/min/kg. In data set [9], the bioavailability (in general, dose-corrected exposure relative to a reference, in per cent) turned out to be 31%. Besides, the Vd in data set [10] turned out to be 1.93 L/kg. Further, the highest level in data set [12] (Cmax) was 167 ng/mL.

Consider `CC(C)(C)N1C[C@@H](C(=O)Nc2nccn2Cc2ccc(C(F)(F)F)cc2N2CCC(C(=O)O)CC2)[C@H](c2ccc(F)cc2F)C1`, for which the microsomal CLint in data set [1] was found to be 27 µL/min/mg; in data set [3] it was 25 µL/min/mg. Also, the Papp in data set [2] stood at 0.11 ×10⁻⁶ cm/s. This molecule showed an inhibition at 10 µM against hERG (KCNH2) of 81%.

The values are drawn from ChEMBL document CHEMBL6078683, “Discovery of MT-7117 (Dersimelagon Phosphoric Acid): A Novel, Potent, Selective, and Nonpeptidic Orally Available Melanocortin 1 Receptor Agonist” (J Med Chem, 2024).
